Where two headings read alike, the source gives them in different places.
System: 1a replicon
Experiment: HCV replicon assay with a 1a replicon
Format: cell-based
Settings: Hepatitis C virus
Source text: To perform the HCV FRET screening assay, 96-well cell culture plates were used, The FRET peptide (Anaspec, Inc.) (Taliani et al., Anal. Biochem., 240:60-67 (1996)) contains a fluorescence donor, EDANS, near one end of the peptide and an acceptor, DABCYL, near the other end. The fluorescence of the peptide is quenched by […] resonance energy transfer (RET) between the donor and the acceptor, but as the NS3 protease cleaves the peptide the products are released from RET quenching and the fluorescence of the donor becomes apparent. The assay reagent was made as follows: 5× cell Luciferase cell culture lysis reagent from Promega (#E153A) diluted to 1× with dH2O, NaCl added to 150 mM final, the FRET peptide diluted to 20 μM final from a 2 mM stock.
To prepare plates, HCV replicon cells, with or without a Renilla luciferase reporter gene, were trypsinized and placed into each well of a 96-well plate with titrated test compounds added in columns 3 through 12; columns 1 and 2 contained a control compound (HCV protease inhibitor), and the bottom row contained cells without compound. The plates were then placed in a CO2 incubator at 37° C.
Subsequent to addition of the test compounds described above (FRET Assay Preparation), at various times the plate was removed and Alamar blue solution (Trek Diagnostics, #00-100) was added per well as a measure of cellular toxicity. After reading in a CYTOFLUOR® 4000 instrument (PE Biosystems), plates were rinsed with PBS and then used for FRET assay by the addition of 30 ul of the FRET peptide assay reagent described above (FRET Assay Preparation) per well. The plate was then placed into the CYTOFLUOR® 4000 instrument which had been set to 340 excite/490 emission, automatic mode for 20 cycles and the plate read in a kinetic mode. Typically, the signal to noise using an endpoint analysis after the reads was at least three-fold. Alternatively, after Alamar blue reading, plates were rinsed with PBS, 50 ul of DMEM (high glucose) without phenol red was added and plates were then used for luciferase assay using the Promega DUAL-GLO® Luciferase Assay System.
Compound analysis was determined by quantification of the relative HCV replicon inhibition and the relative cytotoxicity values. To calculate cytoxicity values, the average Alamar Blue fluorescence signals from the control wells were set as 100% non-toxic. The individual signals in each of the compound test wells were then divided by the average control signal and multiplied by 100% to determine […]. To calculate the HCV replicon inhibition values, an average background value was obtained from the two wells containing the highest amount of HCV protease inhibitor at the end of the assay period. These numbers were similar to those obtained from naïve Huh-7 cells. […]

[1] = determined similarly but with a 1a replicon, class symbol, read-out: EC50

SMILES	EC50 [1]	EC50
COc1ccc2c(c1)C=C(c1c(C(=O)N3C[C@@H](C)N(C)[C@@H](C)C3)c(C(C)C)nn1C1CC1)Cn1c-2c(C2CCCCC2)c2ccc(C(=O)NS(=O)(=O)C(C)C)cc21	0.0017 to 0.5 µM	
COc1ccc2c(c1)C=C(c1c(C(=O)N3C4CCC3CN(C)C4)c(C(C)C)nn1C1CC1)Cn1c-2c(C2CCCCC2)c2ccc(C(=O)NS(=O)(=O)C(C)C)cc21		0.0017 to 0.5 µM
COc1ccc2c(c1)C=C(c1c(C(=O)N3C[C@@H](C)O[C@@H](C)C3)c(C(C)C)nn1C1CC1)Cn1c-2c(C2CCCCC2)c2ccc(C(=O)NS(=O)(=O)C(C)C)cc21	0.0017 to 0.5 µM	
COc1ccc2c(c1)C=C(c1c(C(=O)N3C4CCC3COC4)c(C(C)C)nn1C1CC1)Cn1c-2c(C2CCCCC2)c2ccc(C(=O)NS(=O)(=O)C(C)C)cc21		0.0017 to 0.5 µM
